According to patent publication US20240173432A1, “Compositions and Methods for Treatment of Myotonic Dystrophy Type 1 with CRISPR/SluCas9” (Vertex Pharmaceuticals Incorporated, priority 2021, published 2024):

Assays:
[1] = tested on: CTG repeat in the 3′ UTR of human DMPK gene; assay: Dual-cut screening: CTG repeat excision efficiency by loss-of-signal ddPCR; assay type: cell-based; conditions: sgRNA pair, primary DM1 patient myoblasts; for Excision efficiency (by ddPCR): 3 μM DNA-PKi Compound 6 for 48 hours; for Excision efficiency by ddPCR (Vehicle): vehicle (DMSO)
Procedure, shortened: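 Upstream and downstream SluCas9 RNPs (20 pmol protein, 60 pmol sgRNA each) mixed 1:1 and nucleofected into primary DM1 patient myoblasts, then treated 48 h with DMSO or 3 μM DNA-PKi Compound 6. Genomic DNA taken 72 h post-nucleofection; excision read as loss of target signal by ddPCR versus a DMPK exon 1 reference.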

[2] = tested on: CUG foci in primary DM1 patient myoblasts; assay: Dual-cut screening: FISH staining of CUG RNA foci; assay type: cell-based, human; conditions: sgRNA pair, primary DM1 patient myoblasts; for % of CUG foci free nuclei (DNA-PKi): 3 μM DNA-PKi Compound 6 for 48 hours; for % of CUG foci free nuclei (Vehicle): vehicle (DMSO)
Procedure, shortened: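 SluCas9 RNPs (protein:sgRNA 1:3; 20 pmol SluCas9 + 60 pmol sgRNA per guide, paired 1:1) nucleofected into primary DM1 patient myoblasts, then DMSO or 3 μM DNA-PKi Compound 6 for 48 h. At 72 h post-nucleofection cells fixed, FISH-stained with Cy3-PNA(CAG)5 probe plus anti-MBNL1 and Hoechst; % CUG foci-free nuclei by high-content confocal imaging.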

Row | Substance | Excision efficiency (by ddPCR) [1] | Excision efficiency by ddPCR (Vehicle) [1] | % of CUG foci free nuclei (DNA-PKi) [2] [%] | % of CUG foci free nuclei (Vehicle) [2] [%]
1 | SluU21 + SluD100 (guide 1 GCTCGGAGCGGTTGTGAACTGG; guide 2 GTCCAGAGCTTTGGGCAGATGG; guide RNA; listed as DNA, chemistry not fully specified) | 63.99 | 36.68 | 87.7 | 48.33
2 | SluU59 + SluD32 (guide 1 CGCGGCCGGCGAACGGGGCTCG; guide 2 CTTGTGCATGACGCCCTGCTCT; guide RNA; listed as DNA, chemistry not fully specified) | 83.32 | 57.23 | 91.19 | 69.23
3 | SluU59 + SluD34 (guide 1 CGCGGCCGGCGAACGGGGCTCG; guide 2 CGCGCCAGACGCTCCCCAGAGC; guide RNA; listed as DNA, chemistry not fully specified) | 71.96 | 55.22 | 89.01 | 76.47
4 | SluU59 + SluD48 (guide 1 CGCGGCCGGCGAACGGGGCTCG; guide 2 GAGAGCAGCGCAAGTGAGGAGG; guide RNA; listed as DNA, chemistry not fully specified) | 65.89 | 47.17 | 87.28 | 62.15
5 | SluU59 + SluD56 (guide 1 CGCGGCCGGCGAACGGGGCTCG; guide 2 CCAGCCGGCTCCGCCCGCTTCG; guide RNA; listed as DNA, chemistry not fully specified) | 55.14 | 35.6 | 84.48 | 46.4
6 | SluU59 + SluD68 (guide 1 CGCGGCCGGCGAACGGGGCTCG; guide 2 CCTGTAGCCTGTCAGCGAGTCG; guide RNA; listed as DNA, chemistry not fully specified) | 65.42 | 58.24 | 89.37 | 62.8125
7 | SluU59 + SluD73 (guide 1 CGCGGCCGGCGAACGGGGCTCG; guide 2 CCAAAACGTGGATTGGGGTTGT; guide RNA; listed as DNA, chemistry not fully specified) | 64.95 | 42.14 | 87.85 | 59.22
8 | SluU59 + SluD83 (guide 1 CGCGGCCGGCGAACGGGGCTCG; guide 2 GTGGGGACAGACAATAAATACC; guide RNA; listed as DNA, chemistry not fully specified) | 64.95 | 49.18 | 90.49 | 64.61
9 | SluU59 + SluD100 (guide 1 CGCGGCCGGCGAACGGGGCTCG; guide 2 GTCCAGAGCTTTGGGCAGATGG; guide RNA; listed as DNA, chemistry not fully specified) | 68.69 | 37.61 | 90.09 | 62.45
10 | SluU62 + SluD32 (guide 1 AGGACCCTTCGAGCCCCGTTCG; guide 2 CTTGTGCATGACGCCCTGCTCT; guide RNA; listed as DNA, chemistry not fully specified) | 79.91 | 50.19 | 88.75 | 55.63
11 | SluU62 + SluD34 (guide 1 AGGACCCTTCGAGCCCCGTTCG; guide 2 CGCGCCAGACGCTCCCCAGAGC; guide RNA; listed as DNA, chemistry not fully specified) | 64.95 | 48.18 | 88.29 | 64.71
12 | SluU62 + SluD48 (guide 1 AGGACCCTTCGAGCCCCGTTCG; guide 2 GAGAGCAGCGCAAGTGAGGAGG; guide RNA; listed as DNA, chemistry not fully specified) | 66.36 | 35.6 | 88.08 | 54.22
13 | SluU62 + SluD56 (guide 1 AGGACCCTTCGAGCCCCGTTCG; guide 2 CCAGCCGGCTCCGCCCGCTTCG; guide RNA; listed as DNA, chemistry not fully specified) | 61.21 | 32.08 | 84.3 | 36.42
14 | SluU62 + SluD68 (guide 1 AGGACCCTTCGAGCCCCGTTCG; guide 2 CCTGTAGCCTGTCAGCGAGTCG; guide RNA; listed as DNA, chemistry not fully specified) | 63.55 | 33.08 | 87.71 | 49.06
15 | SluU62 + SluD73 (guide 1 AGGACCCTTCGAGCCCCGTTCG; guide 2 CCAAAACGTGGATTGGGGTTGT; guide RNA; listed as DNA, chemistry not fully specified) | 65.89 | 38.11 | 88.13 | 52.87
16 | SluU62 + SluD83 (guide 1 AGGACCCTTCGAGCCCCGTTCG; guide 2 GTGGGGACAGACAATAAATACC; guide RNA; listed as DNA, chemistry not fully specified) | 68.69 | 43.14 | 88.94 | 56.65
17 | SluU62 + SluD100 (guide 1 AGGACCCTTCGAGCCCCGTTCG; guide 2 GTCCAGAGCTTTGGGCAGATGG; guide RNA; listed as DNA, chemistry not fully specified) | 64.02 | 37.11 | 88.35 | 53.45
18 | SluU63 + SluD32 (guide 1 GGGGCTCGAAGGGTCCTTGTAG; guide 2 CTTGTGCATGACGCCCTGCTCT; guide RNA; listed as DNA, chemistry not fully specified) | 94.81 | 60.75 | 89.04 | 75.26
19 | SluU63 + SluD34 (guide 1 GGGGCTCGAAGGGTCCTTGTAG; guide 2 CGCGCCAGACGCTCCCCAGAGC; guide RNA; listed as DNA, chemistry not fully specified) | 93.5 | 63.27 | 87.25 | 77.85
20 | SluU63 + SluD48 (guide 1 GGGGCTCGAAGGGTCCTTGTAG; guide 2 GAGAGCAGCGCAAGTGAGGAGG; guide RNA; listed as DNA, chemistry not fully specified) | 94.25 | 63.77 | 90.03 | 73.73
21 | SluU63 + SluD56 (guide 1 GGGGCTCGAAGGGTCCTTGTAG; guide 2 CCAGCCGGCTCCGCCCGCTTCG; guide RNA; listed as DNA, chemistry not fully specified) | 90.05 | 50.69 | 88.12 | 60.91
22 | SluU63 + SluD68 (guide 1 GGGGCTCGAAGGGTCCTTGTAG; guide 2 CCTGTAGCCTGTCAGCGAGTCG; guide RNA; listed as DNA, chemistry not fully specified) | 93.64 | 57.23 | 90.625 | 71.74
23 | SluU63 + SluD73 (guide 1 GGGGCTCGAAGGGTCCTTGTAG; guide 2 CCAAAACGTGGATTGGGGTTGT; guide RNA; listed as DNA, chemistry not fully specified) | 95.51 | 63.27 | 90.58 | 70.03
24 | SluU63 + SluD83 (guide 1 GGGGCTCGAAGGGTCCTTGTAG; guide 2 GTGGGGACAGACAATAAATACC; guide RNA; listed as DNA, chemistry not fully specified) | 93.27 | 58.74 | 89.8 | 74.11
25 | SluU63 + SluD100 (guide 1 GGGGCTCGAAGGGTCCTTGTAG; guide 2 GTCCAGAGCTTTGGGCAGATGG; guide RNA; listed as DNA, chemistry not fully specified) | 91.5 | 58.24 | 89.97 | 73.15
